Reference: patent US20040248867A1, “Novel anti-inflammatory 17α-heterocyclic-esters of 17βcarbothioate androstane derivatives” (priority 2001, published 2004)

Tested on: progesterone receptor
Assay: Screen for progesterone receptor activity (T47D alkaline phosphatase); selectivity versus glucocorticoid receptor
Assay type: cell-based, human
Conditions: further experiments (additional data); ED50 at progesterone receptor divided by ED50 at glucocorticoid receptor
Experimental: The human breast cancer cell line T47D has been reported to upregulate an endogenous alkaline phosphatase in response to progestins (Di Lorenzo et al., Cancer Research (1991) 51, 4470-4475. T47D cells were seeded into 96 well plates at a density of 1×10^5 cells per well and grown overnight at 37° C. Steroids were dissolved in DMSO, added to the cells (final DMSO concentration 0.7%), and incubated for 24 hours at 37° C. The cells were then washed with PBS and lysed with RIPA buffer (1% IGEPAL, 0.5% Na deoxycholate, 0.1% SDS in phosphate buffered saline). Alkaline phosphatase activity was measured spectrophotometrically (405 nm) using p-nitrophenylphosphate (1.5 mg/ml) as a substrate dissolved in 1M diethanolamine, 0.28M NaCl, 0.5 mM MgCl2. Dose response curves were constructed from which EC50 values were estimated.
Compounds were tested for progesterone activity in accordance with the above screen and the selectivity was determined by dividing the ED50 at the progesterone receptor by the ED50 at the glucocorticoid receptor.

SMILES | Selectivity
CC1CC2C3CC(F)C4=CC(=O)C=CC4(C)C3(F)C(O)CC2(C)C1(OC(=O)C1CCCO1)C(=O)SCF (stereo not drawn) [Example 2, 6α,9α-Difluoro-11β-hydroxy-16α-methyl-3-oxo-17α-(tetrahydrofuran-2R-ylcarbonyl)oxy-androsta-1,4-diene-17β-carbothioic acid S-fluoromethyl ester] | 1099
CC1CC2C3CC(F)C4=CC(=O)C=CC4(C)C3(F)C(O)CC2(C)C1(OC(=O)C1SCCS1)C(=O)SCF (stereo not drawn) [Example 4, 6α,9α-Difluoro-17α-(1,3-dithiolan-2-ylcarbonyl)oxy-11β-hydroxy-16α-methyl-3-oxo-androsta-1,4-diene-17β-carbothioic acid S-fluoromethyl ester] | 1192
CC1CC2C3CC(F)C4=CC(=O)C=CC4(C)C3(F)C(O)CC2(C)C1(OC(=O)C1CSC1)C(=O)SCF (stereo not drawn) [Example 6, 6α,9α-Difluoro-11β-hydroxy-16α-methyl-3-oxo-17α-(thietan-3-ylcarbonyl)oxy-androsta-1,4-diene-17β-carbothioic acid S-fluoromethyl ester] | 500
CC1CC2C3CC(F)C4=CC(=O)C=CC4(C)C3(F)C(O)CC2(C)C1(OC(=O)C1(C)CCCO1)C(=O)SCF (stereo not drawn) [Example 8A, 6α,9α-Difluoro-11β-hydroxy-16α-methyl-3-oxo-17-(2-methyl-tetrahydrofuran-2-ylcarbonyl)oxy-androsta-1,4-diene-17β-carbothioic acid S-fluoromethyl ester] | 49425
CC1CC2C3CC(F)C4=CC(=O)C=CC4(C)C3(F)C(O)CC2(C)C1(OC(=O)C1(C)CCCO1)C(=O)SCF (stereo not drawn) [Example 8B, 6α,9α-Difluoro-11β-hydroxy-16α-methyl-3-oxo-17-(2-methyl-tetrahydrofuran-2-ylcarbonyl)oxy-androsta-1,4-diene-17β-carbothioic acid S-fluoromethyl ester] | 63855
CC1CC2C3CC(F)C4=CC(=O)C=CC4(C)C3(F)C(O)CC2(C)C1(OC(=O)C1(C)OCCO1)C(=O)SCF (stereo not drawn) [Example 11, 6α,9α-Difluoro-11β-hydroxy-16α-methyl-17α-(2-methyl-1,3-dioxolan-2-ylcarbonyl)oxy-3-oxo-androsta-1,4-diene-17β-carbothioic acid S-fluoromethyl ester] | 1620
CC1CC2C3CC(F)C4=CC(=O)C=CC4(C)C3(F)C(O)CC2(C)C1(OC(=O)C1(C)CCCS1)C(=O)SCF (stereo not drawn) [Example 13A, 6α,9α-Difluoro-11β-hydroxy-16α-methyl-3-oxo-17α-(2-methyl-tetrahydrothiophen-2-ylcarbonyl)oxy-androsta-1,4-diene-17β-carbothioic acid S-fluoromethyl ester] | 2650
CC1CC2C3CC(F)C4=CC(=O)C=CC4(C)C3(F)C(O)CC2(C)C1(OC(=O)C1(C)CCCS1)C(=O)SCF (stereo not drawn) [Example 13B, 6α,9α-Difluoro-11β-hydroxy-16α-methyl-3-oxo-17α-(2-methyl-tetrahydrothiophen-2-ylcarbonyl)oxy-androsta-1,4-diene-17β-carbothioic acid S-fluoromethyl ester] | 1955
CCC(=O)O[C@]1(C(=O)SCF)[C@H](C)C[C@H]2[C@@H]3C[C@H](F)C4=CC(=O)C=C[C@]4(C)[C@@]3(F)[C@@H](O)C[C@@]21C [Fluticasone propionate, 6α,9α-Difluoro-17α-(1-oxopropoxy)-11β-hydroxy-16α-methyl-3-oxo-androsta-1,4-diene-17β-carbothioic acid S-fluoromethyl ester, reference compound] | 82
